Laboratory results as given in patent US20260078111A1, “CARBONIC ANHYDRASE ENZYME INHIBITORS AND METHODS OF USE THEREOF” (RUTGERS, THE STATE UNIVERSITY OF NEW JERSEY, priority 2022, published 2026).

How the values were obtained:
[1] = tested on: intestinal mast cell responses; experiment: Trichinella spiralis-induced mastocytosis model; assay type: in vivo; details: 2 mg/day i.p., T. spiralis-infected mice, day 10 post-infection
From the text: To address this, a model of Trichinella spiralis-induced mastocytosis was employed and the capacity of MZ and 4-(3-hydroxy-1-(4-methoxybenzyl)-2-oxoindolin-3-yl)benzenesulfonamide to inhibit intestinal mast cell responses was directly compared (Henry, E. K., et al., J Exp Med, 2016. 213(9): p. 1663-73). Briefly, mice were infected with T. spiralis and treated with either vehicle, MZ or 4-(3-hydroxy-1-(4-methoxybenzyl)-2-oxoindolin-3-yl)benzenesulfonamide and intestinal mast cells were quantified via esterase staining and histological analysis (Henry, E. K., et al., J Exp Med, 2016. 213(9): p. 1663-73).
Trichinella spiralis infection: Mice were infected with 500 T. spiralis muscle stage larvae by oral gavage and were treated with vehicle (1:5, DMSO/PBS), 2 mg MZ, or 2 mg 4-(3-hydroxy-1-(4-methoxybenzyl)-2-oxoindolin-3-yl)benzenesulfonamide (CAR0037) i.p. daily; mice were sacrificed between on day 10-post infection and mast cell responses in the small intestine were evaluated by esterase staining as described previously (Henry, E. K., et al., J Exp Med, 2016. 213(9): p. 1663-73).

[2] = biological target: recombinant human Car1 (Homo sapiens, UniProt P00915); experiment: Stopped-flow assay of Car1 enzyme inhibition (IC50); assay type: biochemical
Protocol: Stopped-flow: IC50 values were established using an SX20 stopped-flow spectrometer from […]. In one syringe of the SX20, recombinant human Car1 was kept at a concentration of 9 μM in a sodium phosphate buffer and inhibitors were added to this solution at 0 nM, 10 nM, 20 nM, 80 nM and 100 nM. In a second syringe, a saturated CO2 solution was mixed with 0.2 mM phenol red. This series of dilutions allow for the evaluation of how quickly Car1 can metabolize the CO2 in the absence of an inhibitor and for the determination of whether that process is inhibited as increasing concentrations of compounds are added.

[3] = tested on: mast cell development from murine bone marrow cells; experiment: In vitro mast cell development culture assay (IL-3, flow cytometry); assay type: cell-based, mice; details: for inhibition at 15 µM: Table 3, read-out: POI (percent of inhibition based on MC numbers)
Protocol: To further test the ability of 4-(3-hydroxy-1-(4-methoxybenzyl)-2-oxoindolin-3-yl)benzenesulfonamide to inhibit mast cell development, an established mast cell culture assay was employed (Henry, E. K., et al., J Exp Med, 2016. 213(9): p. 1663-73). As a positive control for mast cell development, bone marrow cells were isolated from the femur of mice and cultured in the presence of 10 ng/mL of IL-3 and vehicle (1:10, DMSO/RPMI complete media) for seven days and mast cells were identified by flow cytometric analysis as (c-Kit+ FceRIa+ CD49b− cells).
In vitro Mast Cell development: Briefly, 1×10^6 bone marrow-resident progenitor cells were isolated from the femur of mice and cultured in complete media supplemented with 10 ng/mL of rIL-3 for a period of […]. Mast cells were identified by their expression of the surface molecules FcεRIα and c-Kit via flow cytometric analysis. In addition to IL-3, cultures were treated with vehicle or increasing concentrations of Car enzyme inhibitors at the indicated concentrations.

recombinant human Car1, sequence (P00915 whole entry): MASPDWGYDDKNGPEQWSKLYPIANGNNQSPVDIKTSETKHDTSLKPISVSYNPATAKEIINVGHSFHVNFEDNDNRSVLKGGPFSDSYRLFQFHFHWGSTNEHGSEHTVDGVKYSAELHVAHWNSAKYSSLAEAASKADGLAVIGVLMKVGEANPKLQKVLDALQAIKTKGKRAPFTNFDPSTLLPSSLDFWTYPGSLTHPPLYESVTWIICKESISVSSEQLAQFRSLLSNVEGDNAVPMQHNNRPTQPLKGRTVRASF

SMILES | intestinal mast cell responses post-infection (esterase staining) [1] | IC50 [2] [nM] | inhibition at 15 µM ([3]; Mus musculus, Mast cell) [%] | other results
COc1ccc(CN2C(=O)C(O)(c3ccc(S(N)(=O)=O)cc3)c3ccccc32)cc1 (centres unmarked) [CAR0037, 4-(3-hydroxy-1-(4-methoxybenzyl)-2-oxoindolin-3-yl)benzenesulfonamide] | significantly decreased intestinal mast cell numbers | 0.044 |  | inhibition of mast cell development compared to MZ ([3]; 10 uM, IL-3 10 ng/mL, seven days, versus 126.97 uM MZ): inhibited mast cell development as effectively as 126.97 uM of MZ
CC(=O)/N=c1/sc(S(N)(=O)=O)nn1C [MZ, methazolamide, reference compound] | no changes in mast cell responses |  |  | mast cell numbers ([3]; 30 μg/mL (126.97 uM), IL-3 10 ng/mL, seven days): significantly decreased mast cell numbers; inhibition at 126 µM ([3]; Mus musculus, Mast cell, read-out: POI of control (percent of inhibition based on MC numbers)): 78 to 100%
NS(=O)(=O)c1ccc(C2(O)C(=O)N(Cc3ccc(-c4ccncc4)cc3)c3ccccc32)cc1 (centres unmarked) [NEM-23A, 4-[3-hydroxy-2-oxo-1-[[4-(4-pyridyl)phenyl]methyl]indolin-3-yl]benzenesulfonamide] |  | 77 | 99 | inhibition of mast cell numbers ([3]; 100 nM, titration, FIG. 3): inhibits mast cell numbers; inhibition of mast cell numbers (POI) compared to MZ at 126 uM ([3]; 5 uM): comparable level than MZ at 126 uM; inhibition of mast cell numbers (POI) compared to MZ at 126 uM ([3]; 10 uM): comparable level than MZ at 126 uM; inhibition of mast cell numbers (POI) compared to MZ at 126 uM ([3]; 15 uM): comparable level than MZ at 126 uM; inhibition at 0.25 µM ([3]; Mus musculus, Mast cell, 250 nM, titration, FIG. 3, read-out: inhibition of mast cell numbers): ~50%
NS(=O)(=O)c1ccc(C2(O)C(=O)N(Cc3ccc(N4CCCC4)cc3)c3ccccc32)cc1 (centres unmarked) [NEM-24A, 4-[3-hydroxy-2-oxo-1-[(4-pyrrolidin-1-ylphenyl)methyl]indolin-3-yl]benzenesulfonamide] |  | 44.3 | 99 | 
NS(=O)(=O)c1ccc(C2(O)C(=O)N(c3cccc4cc5c(cc34)OCO5)c3ccccc32)cc1 (centres unmarked) [NEM-37A, 4-(1-benzo[f][1,3]benzodioxol-5-yl-3-hydroxy-2-oxo-indolin-3-yl)benzenesulfonamide] |  | 5.3 | 100 | 
